PubChem BioAssay AID1645864 (Buhrlage Lab, Dana-Farber Cancer Institute and Novartis …, 2021)
Active and inactive are the calls of the source.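 How the source made its calls: active means maximal inhibition of USP17 at or above 30% in the confirmation dose-response, a value not among the printed readouts; inactive means the rest.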

Target: Ubiquitin carboxyl-terminal hydrolase 17-like protein 5 (Homo sapiens) (UniProt A8MUK1)
Test: ubiquitin-specific protease 17 inhibitors, concentration series, biochemical, verification of primary actives (AID 1645864)
Conditions: purified USP17, ubiquitin-rhodamine cleavage fluorescence, 3 h

Sequence of Ubiquitin carboxyl-terminal hydrolase 17-like protein 5 (Homo sapiens) (A8MUK1 whole entry, looked up): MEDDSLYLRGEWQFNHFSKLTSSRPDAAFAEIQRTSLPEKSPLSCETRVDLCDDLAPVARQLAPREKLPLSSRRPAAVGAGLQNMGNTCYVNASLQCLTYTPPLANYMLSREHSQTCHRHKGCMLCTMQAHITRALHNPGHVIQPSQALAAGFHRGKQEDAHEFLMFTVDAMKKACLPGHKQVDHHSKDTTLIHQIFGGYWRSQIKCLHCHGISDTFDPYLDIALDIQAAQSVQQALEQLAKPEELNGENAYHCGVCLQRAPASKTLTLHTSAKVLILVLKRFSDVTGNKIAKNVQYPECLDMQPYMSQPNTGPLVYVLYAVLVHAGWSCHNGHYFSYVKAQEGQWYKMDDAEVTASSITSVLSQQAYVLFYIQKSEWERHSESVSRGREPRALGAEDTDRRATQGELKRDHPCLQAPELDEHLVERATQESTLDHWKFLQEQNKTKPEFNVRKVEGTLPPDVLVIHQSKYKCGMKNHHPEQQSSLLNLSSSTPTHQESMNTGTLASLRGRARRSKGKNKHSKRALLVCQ

IC50 | Compound
> 50 µM (inactive) | COc1ccc(COC(=O)C2=C(C)NC(=O)CC2c2cccc([N+](=O)[O-])c2)cc1 (stereo not drawn)
> 50 µM (inactive) | COc1ccc(/C=C/C(=O)N2CCc3ccccc32)cc1S(=O)(=O)N1CCOCC1
21.9 µM | O=C(Nc1cccc(N2CCCC2=O)c1)c1cccc2cccnc12
33.9 µM | COc1ccc(C(=O)Nc2cc(F)c3nc(N4CCOCC4)ccc3c2)c(OC)c1
> 50 µM (inactive) | CCc1ccc2c(c1)[C@]1(C(=O)N2)[C@@H]2C(=O)N(c3ccc(Cl)cc3Cl)C(=O)[C@@H]2[C@@H]2CCCN21
> 50 µM (inactive) | O=C(Nc1nnc2n1CCCS2)c1cc2ccccc2o1
> 5 µM (inactive) | COc1cc(NC(=O)Cn2c(=O)n(-c3ccc(CC(=O)NC4CCCC4)cc3)c(=O)c3ccccc32)cc(OC)c1
34 µM | CC(C)CCN1C(=O)C2C(C(=O)Nc3ccc(Oc4ccccc4)cc3)C3C=CC2(O3)C1C(=O)NC1CCCCC1 (stereo not drawn)
29.2 µM | CC(=O)Nc1ccc(-n2cnc(C(=O)NC(C)c3ccccc3)c2)nc1 (stereo not drawn)
26.2 µM | COc1ccc(NC(=O)C2C3C=CC4(O3)C2C(=O)N(CCc2ccccc2)C4C(=O)NC2CCCCC2)cc1 (stereo not drawn)
> 50 µM (inactive) | CC1CCN(S(=O)(=O)c2ccc3[nH]cc(C(=O)NCc4ccco4)c(=O)c3c2)CC1
> 50 µM (inactive) | Clc1cccc(N2CCN(c3ncnc4nc[nH]c34)CC2)c1
> 50 µM (inactive) | COc1ccc2nc3c(cc2c1)c(=O)n(C)c1c3c(=O)n(-c2ccccc2)c(=O)n1-c1ccccc1
> 50 µM (inactive) | O=c1[nH]c(C2CCN(S(=O)(=O)c3ccc(S(=O)(=O)NC4CCCC4)cc3)CC2)nc2c1nnn2Cc1cccc(Cl)c1
> 50 µM (inactive) | O=C(NC1CCCCC1)c1cc2c(cn1)[nH]c1ccccc12
> 50 µM (inactive) | COc1ccc(S(=O)(=O)N2CCN3Cc4ccccc4N(C)CC3C2)cc1 (stereo not drawn)

IC50 | Compound
> 50 µM (inactive) | COc1ccc(C)cc1NC(=O)C(NS(=O)(=O)c1ccc2c(c1)CCN2C(C)=O)C(C)C (stereo not drawn)
> 50 µM (inactive) | O=C(NCc1cccnc1)c1cnn2c(C(F)(F)F)cc(-c3ccccc3)nc12
> 50 µM (inactive) | CCN1C[C@@H]2C[C@]2(c2ccccc2OC)C(=O)c2ncccc21
0.226 µM | Cc1ccc(-n2c(-c3ccccc3)cn3c4c(=O)[nH]c(=O)n(C)c4nc23)cc1Cl
> 50 µM (inactive) | CCc1nc2c(NC(=O)Nc3cccc(C(=O)OC)c3)cccn2n1
> 50 µM (inactive) | N#Cc1c(-c2cccs2)cc(-c2cccs2)[nH]c1=O
29.8 µM | Cc1ccc(NC(=O)CSc2nc3c(cc2C#N)C(=O)CCC3)cc1
23.8 µM | COc1ccc(-n2c(SCC(=O)c3ccc(F)cc3)nnc2-c2cccnc2)cc1
29.6 µM | CNC(=O)CC1NC(=O)c2csc(n2)-c2ccc(-c3nc(C4=NC(C(=O)N5CCCC5C(N)=O)CO4)cs3)nc2-c2csc(n2)-c2csc(n2)C(C(O)c2ccccc2)NC(=O)CNC(=O)c2nc(sc2COC)C(C(C)C)NC(=O)c2nc1sc2C (stereo not drawn)
32 µM | Cc1ccc2c(c1)[C@]1(C(=O)N2)[C@@H](C(=O)c2ccccc2)[C@]2(C(=O)Nc3ccccc32)[C@@H]2CCCN21
> 50 µM (inactive) | O=C(NCc1ccc(F)cc1)C1CCCN(c2cnc3nccnc3c2)C1 (stereo not drawn)
2.96 µM | Cc1ccccc1C(=O)c1ccc(C(=O)NC2CCCCCC2)[nH]1
> 50 µM (inactive) | Cc1ccc(C)c(Nc2cc(C)nc3nc(-c4ccco4)nn23)c1
28.1 µM | COc1ccc(NS(=O)(=O)c2cc(NC(=O)CCc3nc4ccccc4s3)ccc2C)cc1
20.2 µM | CNS(=O)(=O)c1ccc(CNC(=O)c2cc(-c3ccc(C)cc3)no2)cc1
> 50 µM (inactive) | CCOc1ccc(NC(=O)COc2cccc(-n3cnnn3)c2)cc1

Compound | IC50
CC1CC[C@]2(NC1)O[C@H]1C[C@H]3[C@@H]4CC[C@H]5C[C@@H](O[C@@H]6O[C@H](CO)[C@H](O[C@@H]7O[C@H](CO)[C@@H](O)[C@H](O[C@@H]8OC[C@@H](O)[C@H](O)[C@H]8O)[C@H]7O[C@@H]7O[C@H](CO)[C@@H](O)[C@H](O)[C@H]7O)[C@H](O)[C@H]6O)CC[C@]5(C)[C@H]4CC[C@]3(C)[C@H]1[C@@H]2C (stereo partly drawn) | 40 µM
